Results from PMC9939733 (The Journal of Biological Chemistry, 2023).
Positions count from the first letter of the chain named. Structures can show the parent of a compound that is named as a salt.

What was measured:
Format in all cases: biochemical
WT IDH2 [1] = biological target: T1, WT IDH2 (Homo sapiens, UniProt P48735); test: Absorbance assay, substrate activity in the absence of DL-isocitrate; settings: no DL-isocitrate; […] test compound, 75 μM NADP+, 2.0 nM WT IDH2; compared to DL-isocitrate
T1 construct: made in house; host or cells: Sf21 insect cells (cell pellets prepared at Evotec)
T1 sequence (P48735 40-452): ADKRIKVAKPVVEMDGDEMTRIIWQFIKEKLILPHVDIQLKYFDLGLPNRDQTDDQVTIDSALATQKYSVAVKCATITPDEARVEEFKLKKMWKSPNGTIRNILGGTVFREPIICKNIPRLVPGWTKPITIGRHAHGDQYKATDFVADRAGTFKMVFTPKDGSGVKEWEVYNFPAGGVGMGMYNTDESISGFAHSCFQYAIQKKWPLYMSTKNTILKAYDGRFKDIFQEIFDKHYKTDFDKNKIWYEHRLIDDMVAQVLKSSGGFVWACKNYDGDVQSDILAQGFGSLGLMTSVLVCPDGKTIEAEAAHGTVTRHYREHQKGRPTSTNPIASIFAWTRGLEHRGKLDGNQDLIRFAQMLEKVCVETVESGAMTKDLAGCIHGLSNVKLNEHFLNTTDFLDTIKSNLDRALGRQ
Experimental: (§1) Compounds were dispensed using a CyBio SDW-CW CyBi-Well Simultaneous Pipettor and assay started using a ThermoFisher Multidrop Combi reagent dispenser.
(§2) Reactions were performed as technical quadruplicates.

WT IDH1 [2] = biological target: T2, WT IDH1 (Homo sapiens, UniProt O75874); test: as above; settings: no DL-isocitrate; […] test compound, 75 μM NADP+, 2.0 nM WT IDH1; compared to DL-isocitrate
T2 construct: made in house; host or cells: Escherichia coli BL21(DE3) pLyS
Experimental: as §1, §2

WT IDH2 [3] = biological target: T1, WT IDH2; test: Absorbance assay, WT activity in the presence of equimolar DL-isocitrate (inhibition)
Experimental: as §1, §2

WT IDH1 [4] = biological target: T2, WT IDH1; test: as above
Experimental: as §1, §2

R132H IDH1 [5] = biological target: T3, R132H IDH1 (Homo sapiens, UniProt O75874, R132H); test: Absorbance assay (NADPH consumption), substrate turnover in the absence of 2OG; design: made in house; host or cells: Escherichia coli BL21(DE3) pLyS
Experimental: as §1, §2

R172K IDH2 [6] = biological target: T4, R172K IDH2 (Homo sapiens, UniProt P48735, R172K); test: Absorbance assay, variant activity in the presence of equimolar 2OG (inhibition screen)
T4 construct: made in house; host or cells: Sf21 insect cells (cell pellets prepared at Evotec)
T4 sequence (P48735 40-452 R172K): T1 sequence (P48735 40-452) with R133K
Experimental: as §1, §2

R140Q IDH2 [7] = biological target: T5, R140Q IDH2 (Homo sapiens, UniProt P48735, R140Q); test: as above
T5 construct: made in house; host or cells: Sf21 insect cells (cell pellets prepared at Evotec)
T5 sequence (P48735 40-452 R140Q): T1 sequence (P48735 40-452) with R101Q
Experimental: as §1, §2

R172K IDH2 [8] = biological target: T4, R172K IDH2; test: Absorbance assay (NADPH consumption), substrate turnover in the absence of 2OG
Experimental: as §1, §2

R140Q IDH2 [9] = biological target: T5, R140Q IDH2; test: as above
Experimental: as §1, §2

R132H IDH1 [10] = biological target: T3, R132H IDH1; test: Absorbance assay, variant activity in the presence of equimolar 2OG (inhibition screen); design: made in house; host or cells: Escherichia coli BL21(DE3) pLyS
Experimental: as §1, §2

[11] = […] isocitrate and […] test compound, 75 μM NADP+, 2.0 nM WT IDH2
[12] = […] isocitrate and […] test compound, 75 μM NADP+, 2.0 nM WT IDH1
[13] = no 2OG, […] test compound, 0.03 μM R132H IDH1, 50 μM NADPH, 2OG = 100
[14] = 1.0 mM 2OG and 1.0 mM test compound, 0.03 μM R172K IDH2, 50 μM NADPH
[15] = 6.0 mM 2OG and 6.0 mM test compound, 0.03 μM R140Q IDH2, 50 μM NADPH
[16] = no 2OG, 1.0 mM test compound, 0.03 μM R172K IDH2, 50 μM NADPH, 2OG = 100
[17] = no 2OG, 6.0 mM test compound, 0.03 μM R140Q IDH2, 50 μM NADPH, 2OG = 100
[18] = […] 2OG and […] test compound, 0.03 μM R132H IDH1, 50 μM NADPH

T2 sequence (O75874 whole entry): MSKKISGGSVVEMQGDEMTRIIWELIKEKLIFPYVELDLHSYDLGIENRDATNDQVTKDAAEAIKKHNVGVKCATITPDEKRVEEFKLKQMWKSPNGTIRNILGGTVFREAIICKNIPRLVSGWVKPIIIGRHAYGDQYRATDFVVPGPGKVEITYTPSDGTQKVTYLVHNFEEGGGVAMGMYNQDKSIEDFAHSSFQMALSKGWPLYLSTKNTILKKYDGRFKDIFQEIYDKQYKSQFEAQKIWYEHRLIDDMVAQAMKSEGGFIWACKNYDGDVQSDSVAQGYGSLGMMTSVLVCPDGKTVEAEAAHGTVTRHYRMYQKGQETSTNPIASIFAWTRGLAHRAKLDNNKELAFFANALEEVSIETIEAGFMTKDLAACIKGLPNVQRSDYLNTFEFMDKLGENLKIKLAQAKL
T3 sequence (O75874 whole entry R132H): as the sequence (O75874 whole entry) above, with R132H counted along it

activity [%] (%-substrate conversion after 20 min incubation) (WT IDH2 [1]) | activity [%] (%-substrate conversion after 20 min incubation) (WT IDH1 [2]) | activity [%] (%-substrate conversion after 20 min incubation) (WT IDH2 [3]; [11]) | activity [%] (%-substrate conversion after 20 min incubation) (WT IDH1 [4]; [12]) | activity [%] (%-substrate conversion after 20 min incubation) (R132H IDH1 [5]; [13]) | activity [%] (%-substrate conversion after 20 min incubation) (R172K IDH2 [6]; [14]) | activity [%] (%-substrate conversion after 20 min incubation) (R140Q IDH2 [7]; [15]) | activity [%] (%-substrate conversion after 20 min incubation) (R172K IDH2 [8]; [16]) | activity [%] (%-substrate conversion after 20 min incubation) (R140Q IDH2 [9]; [17]) | activity [%] (%-substrate conversion after 20 min incubation) (R132H IDH1 [10]; [18]) | Compound | activity [%] (%-substrate conversion after 20 min incubation) (WT IDH2 [3]) | activity [%] (%-substrate conversion after 20 min incubation) (WT IDH1 [4]) | activity [%] (%-substrate conversion after 20 min incubation) (R132H IDH1 [5]) | activity [%] (%-substrate conversion after 20 min incubation) (R172K IDH2 [6]) | activity [%] (%-substrate conversion after 20 min incubation) (R140Q IDH2 [7]) | activity [%] (%-substrate conversion after 20 min incubation) (R172K IDH2 [8]) | activity [%] (%-substrate conversion after 20 min incubation) (R140Q IDH2 [9]) | activity [%] (%-substrate conversion after 20 min incubation) (R132H IDH1 [10])
< 10 | < 10 | 100 ± 1 | 109 ± 4 | < 10 | 99 ± 4 | 91 ± 5 | < 10 | < 10 | 104 ± 4 | O=C(O)CC(S)C(=O)O (stereo not shown) [2-mercaptosuccinic acid] | – | – | – | – | – | – | – | –
< 10 | < 10 | 95 ± 5 | 105 ± 6 | < 10 | 100 ± 8 | 115 ± 9 | < 10 | < 10 | 104 ± 8 | CC(O)C(=O)O (racemic) [DL-lactic acid] | – | – | – | – | – | – | – | –
< 10 | < 10 | 100 ± 2 | 102 ± 4 | < 10 | 85 ± 12 | – | < 10 | < 10 | 79 ± 1 | O=C(O)C(=O)C(=O)O [ketomalonic acid] | – | – | – | – | – | – | – | –
– | – | 101 ± 5 | 108 ± 4 | < 10 | 104 ± 1 | 82 ± 4 | < 10 | < 10 | 104 ± 7 | N[C@@H](CCCC(=O)O)C(=O)O [L-2-aminoadipic acid] | – | – | – | – | – | – | – | –
– | – | 95 ± 3 | 94 ± 2 | < 10 | 95 ± 4 | 98 ± 8 | < 10 | < 10 | 89 ± 5 | O=C(O)CCC(O)C(=O)O (racemic) [DL-2-hydroglutaric acid] | – | – | – | – | – | – | – | –
– | – | 98 ± 3 | 105 ± 4 | < 10 | 94 ± 5 | 102 ± 5 | < 10 | < 10 | 104 ± 2 | CC[C@H](C)C(=O)C(=O)O [α-ketoisoleucine] | – | – | – | – | – | – | – | –

The next lines start with the compound.

Compound | activity [%] (%-substrate conversion after 20 min incubation) (WT IDH2 [1]) | activity [%] (%-substrate conversion after 20 min incubation) (WT IDH1 [2]) | activity [%] (%-substrate conversion after 20 min incubation) (WT IDH2 [3]; [11]) | activity [%] (%-substrate conversion after 20 min incubation) (WT IDH1 [4]; [12]) | activity [%] (%-substrate conversion after 20 min incubation) (R132H IDH1 [5]; [13]) | activity [%] (%-substrate conversion after 20 min incubation) (R172K IDH2 [6]; [14]) | activity [%] (%-substrate conversion after 20 min incubation) (R140Q IDH2 [7]; [15]) | activity [%] (%-substrate conversion after 20 min incubation) (R172K IDH2 [8]; [16]) | activity [%] (%-substrate conversion after 20 min incubation) (R140Q IDH2 [9]; [17]) | activity [%] (%-substrate conversion after 20 min incubation) (R132H IDH1 [10]; [18]) | activity [%] (%-substrate conversion after 20 min incubation) (WT IDH2 [3]) | activity [%] (%-substrate conversion after 20 min incubation) (WT IDH1 [4]) | activity [%] (%-substrate conversion after 20 min incubation) (R132H IDH1 [5]) | activity [%] (%-substrate conversion after 20 min incubation) (R172K IDH2 [6]) | activity [%] (%-substrate conversion after 20 min incubation) (R140Q IDH2 [7]) | activity [%] (%-substrate conversion after 20 min incubation) (R172K IDH2 [8]) | activity [%] (%-substrate conversion after 20 min incubation) (R140Q IDH2 [9]) | activity [%] (%-substrate conversion after 20 min incubation) (R132H IDH1 [10])
O=C(O)/C=C/C(=O)O [fumaric acid] | < 10 | < 10 | 97 ± 1 | 98 ± 1 | < 10 | 87 ± 6 | 112 ± 13 | < 10 | < 10 | 86 ± 3 | – | – | – | – | – | – | – | –
COC(=O)/C=C/C(=O)O [mono-methyl fumarate] | < 10 | < 10 | 98 ± 1 | 102 ± 2 | < 10 | 92 ± 6 | 98 ± 4 | < 10 | < 10 | 90 ± 4 | – | – | – | – | – | – | – | –
O=C(O)CC(O)(CC(=O)O)C(=O)O [DL-citric acid] | – | – | – | – | – | – | – | – | – | – | 101 ± 3 | 103 ± 3 | < 10 | 94 ± 4 | 122 ± 14 | < 10 | < 10 | 115 ± 25
O=C(O)C(=O)CCc1ccccc1 [2-oxo-4-phenylbutanoic acid] | – | – | 96 ± 6 | 94 ± 2 | < 10 | 96 ± 1 | 98 ± 8 | < 10 | < 10 | 90 ± 3 | – | – | – | – | – | – | – | –
COC(=O)CCC(=O)C(=O)OC [dimethyl 2-oxoglutaric acid] | – | – | 97 ± 2 | 98 ± 1 | < 10 | 100 ± 9 | 124 ± 12 | < 10 | < 10 | 95 ± 3 | – | – | – | – | – | – | – | –
